This note sets out measurements from publication PMC8635029 (Frontiers in Pharmacology, 2021).

Data set [1] concerns mice. In words: Locomotor activity test (sedation).
The test system of data set [2] is ICR mice. Put plainly: Measurement of respiration (whole body plethysmography). Format: in vivo. The protocol:
A whole body plethysmography (DSI, US) was used to measure respiration in freely moving ICR mice (half male and half female) as described previously ([Manglik et al., 2016]; [Hill et al., 2018a]; [Hill et al., 2018b]) with some modifications. The respiratory frequency was recorded and then averaged for over 5-min period. The baseline values were recorded for 10 min before dosing. The mice were then removed from the chambers and given drugs, and respiration was then measured for 45 min.

Data set [3] concerns C57BL/6J mice. Put plainly: Hot-plate test. The following applies: 10 mg/kg. Format: in vivo. The method, then: The hot-plate test was performed according to previous reports ([DeWire et al., 2013]; [Hill et al., 2018a]; [Wang et al., 2018]). Female C57BL/6J mice were individually placed on a hot plate at 56°C and the latency to licking or jumping was then recorded. A cut-off time of 30 s was imposed in order to prevent tissue damage. Before drug administration, the latency of each mouse was measured and defined as the pre-drug value. The animals with a pre-drug value of greater than 20 s were excluded.

In data set [4] the test system is SD rats. Put plainly: Hindpaw incision model (mechanical allodynia, von Frey). Format: in vivo. Conditions: 10 mg/kg. The protocol:
The surgery was conducted as reported previously ([Brennan et al., 1996]; [Whiteside et al., 2004]; [Biddlestone et al., 2007]). Male SD rats were anesthetized with isoflurane inhalation (3–5%) and the plantar surface of the left hindpaw was sterilized using iodophor solution. A 1-cm longitudinal incision was made on the plantar surface with no. Eleven scalpel blade, starting at 0.5 cm from the heel and extending toward the toes. The deep fascia was cut to expose the flexor digitorum brevis muscle. The muscle was elevated with curved forceps and incised longitudinally with the tip of a scalpel blade without disturbing the origin and insertion. […] The responses to mechanical stimulation of the hindpaws were recorded at 2 h post-surgery and the mechanical pain thresholds were defined as pre-dose values. After dividing into different groups according to the pre-dose values, the animals were administered vehicle (normal saline) or test compounds and the mechanical pain thresholds were measured at 15 min and 24 h post-dose.
(§1) The rats were placed individually in Plexiglas chambers on a metallic mesh floor and allowed to acclimatize for 30–60 min ([Tsuda et al., 2011]). Mechanical allodynia was determined by probing the plantar surface of the hindpaw from below the mesh floor with a series of calibrated von Frey filaments (Stoelting) in log increments of force ([Lai et al., 2006]). […]

In data set [5] the test system is ICR mice. In words: Acetic acid-induced writhing test. Format: in vivo. The following applies: 10 mg/kg s.c., 24 h post-dosing. The protocol:
ICR mice (half male and half female) were used in this assay. […] A writhe was defined as a wave of contraction of the abdominal musculature followed by extension of the hind limbs ([Wang et al., 2018]). The percentage inhibition of writhes was calculated by the following formula: % antinociception = (Nv−Nt)/Nv × 100, where Nv is the number of writhes in vehicle group and Nt is the number of writhes in treatment groups.
On the technique in general: In writhing tests, fewer writhes than in controls are read as antinociception.

The test system of data set [6] is SD rats. In words: Chronic constriction injury (CCI) model (mechanical allodynia, von Frey). Format: in vivo. Conditions: 10 mg/kg. The protocol: The CCI surgery was performed as described previously with slight modifications ([Bennett and Xie, 1988]). Male SD rats were used in the CCI model. After isoflurane inhalation anesthesia, the femoral skin of the left hindlimb was incised and the sciatic nerve was exposed by blunt dissection of the biceps femoris muscle with a pair of forceps ([Chen et al., 2018]). A 2 mm-long polyethylene cuff was successively implanted around the nerve and the incision was then closed with skin stapler ([Bailey and Ribeiro-da-Silva, 2006]; [Balasubramanyan et al., 2006]). Animals were returned to their cages after recovering from anesthesia. Seventeen days after the surgery, the responses to mechanical stimulation of the hindpaws were measured before the compounds were administered. The rats were then divided into different groups according to the pre-administration values. After the animals were given vehicle or test compounds, the mechanical pain thresholds were taken at multiple time points.
as §1

Data set [7] concerns ICR mice. Put plainly: Compound 48/80-induced scratching test. Format: in vivo. The following applies: 0.02 mg/kg. The protocol: After acclimatization for 30–60 min in Plexiglas chambers, the male ICR mice were given vehicle or test compounds. Compound 48/80 (50 μg, 0.1 ml) was subcutaneously injected into the back of the neck at 15 min after drug administration ([Salaga et al., 2015]). The mice were immediately placed back into the chambers and the scratching behaviors were recorded for 30 min ([Kobayashi et al., 2003]; [Inan et al., 2009]; [Hachisuka et al., 2010]). One bout of scratching was defined as the mouse lifting its hindpaw towards the injection site to scratch until it either licked or bite the hindpaw or placed it back down on the floor ([Nojima and Carstens, 2003]). The percentage inhibition of scratching was calculated by the following formula: % antipruritis = (Bv−Bt)/Bv × 100, where Bv is the bouts of scratching in vehicle group and Bt is the bouts of scratching in treatment groups.

Where a name gives a salt, the structure may show the parent alone.

Regarding `CC(C)C[C@@H](NC(=O)[C@@H](Cc1ccccc1)NC(=O)[C@H](N)Cc1ccccc1)C(=O)N[C@H](CCCCN)C(=O)N1CCC(N)(C(=O)O)CC1` [CR845], the “effect on locomotor activity / total distance traveled” value in data set [1] (0.4 mg/kg, 15 min post-dosing) is on record as “obvious decrease”. Also, in data set [2] (2 mg/kg), the “effect on respiratory rate” value is listed as “significant decrease”, the “time post-administration at which respiratory rate was significantly decreased” value is 25 min and the “time post-drug at which effects on respiratory rate reached a peak” value is given as 45 min.

On to `CN1CC[C@]23c4c5ccc(O)c4O[C@H]2[C@@H](O)C=C[C@H]3[C@H]1C5` [morphine, morphine sulfate], for which, in data set [3], the “central antinociceptive effect in hot-plate test” value is recorded as “almost complete efficacy”. Besides, the “effect on distance traveled” value in data set [1] (10 mg/kg) was “reduced remarkedly”. Also, in data set [4] (15 min after dosing), the “effect on hindpaw incision-induced mechanical allodynia” value is listed as “completely inhibited”. For the same compound, the “effect on pain behaviors” value in data set [4] (24 h post-dosing) and in data set [6] (24 h post-dosing) was “no any effect” in each case. Besides, in data set [5], the “efficacy in writhing test” value is listed as “vanished”. Moreover, the “effect on CCI-induced mechanical allodynia” value in data set [6] (15 min after dosing) is listed as “completely inhibited”. In data set [2] (10 mg/kg), the “effect on respiratory rate” value is given as “significantly reduced”.

In the case of `CN(C(=O)/C=C/c1ccoc1)[C@@H]1CC[C@@]2(O)[C@H]3Cc4ccc(O)c5c4[C@@]2(CCN3CC2CC2)[C@H]1O5` [nalfurafine, nalfurafine hydrochloride], the “inhibitory rate on scratching responses” value in data set [7] worked out at 94.30%.
